The source made the active and inactive calls.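 The calls were made as follows: active = growth-inhibition EC50 no more than tenfold above the top tested dose; inconclusive = flat fit between 30% and 70% inhibition, or unreliable fit; inactive = EC50 more than tenfold above the top tested dose.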

In this test the test system is E. coli NEB5alpha growth, BacTiter-Glo luminescence, 4 h. Briefly: Escherichia coli growth inhibition, dose response, counter-screen for MEX-5/POS-1 RNA-binding inhibitor project, luminescence, NEB5alpha (AID 1959).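 Also: pUC19-transformed ampicillin-resistant cells grown in LB with ampicillin.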
Consider `O=C1C([N+](=O)[O-])=C(O)c2cccc3cccc1c23`, for which the EC50 was > 11 µM (inactive). Next, `CC(C)c1ccc(C2C(C#N)=C(N)N3C(=C2C#N)Sc2ccccc23)cc1` (stereo not drawn): > 11 µM (inactive); `CCOc1ccc(NC(=O)COc2ccccc2)c([N+](=O)[O-])c1`: > 11 µM (inactive); `N=C1/C(=C\c2ccc(SCc3ccccc3)o2)C(=O)N=C2SC(CC(=O)N3CCOCC3)=NN12`: > 11 µM (inactive). Regarding `CN(C)/C=C/C(=O)c1cnc(-c2ccccc2Cl)s1`, the EC50 is > 11 µM (inactive). As to `Cc1ccc(S(=O)(=O)N2CCOCC2)cc1C(=O)Nc1ccc(S(=O)(=O)Nc2nccs2)cc1`, the EC50 is > 11 µM (inactive). As to `Fc1ccc2c(c1)C1C=CCC1C(c1cc3c(cc1Br)OCO3)N2` (stereo not drawn), the EC50 was > 11 µM (inactive).

For `CCCCCCn1c(=O)[nH]c2nc3cc(N)ccc3nc2c1=O`, the EC50 was > 11 µM (inactive).

For the molecule `COC/C=C/C1=CC2=CC(=O)C(C)(OC(=O)C3CCCC3)C(=O)C2=CO1` (stereo not drawn), the EC50 was > 11 µM (inactive).

As to `Cc1cccc(NC2=Nc3ccccc3N3C2=Nc2c(c(C)nn2-c2ccccc2)C3c2ccc(O)c(O)c2)c1` (stereo not drawn), the EC50 is > 11 µM (inactive).

`CN(C)c1ccc(/C=C2\N=C(C(C)(C)C)OC2=O)cc1`: the EC50 was > 11 µM (inactive). For `CC1(OC(=O)c2cnc3ccccc3n2)C(=O)C=C2C=C(C3CC3)OC=C2C1=O` (stereo not drawn), the EC50 was > 11 µM (inactive). For `Cc1cc(C(=O)N/N=C/c2ccc(-c3cccc(Cl)c3Cl)o2)n[nH]1`, the EC50 is > 11 µM (inactive). As for `CCCN1CC=C2C(C#N)=C(N)C(C#N)(C#N)C(c3cc(OC)ccc3OC)C2C1` (stereo not drawn), the EC50 is > 11 µM (inactive). Under `CC(C)(C)c1nn(-c2ccccc2)c2[nH]c(=O)c(CNCc3ccco3)cc12` stands > 11 µM (inactive). Consider `CN1C(=O)C(=Cc2cn(CC(=O)N3CCCCC3)c3ccccc23)C(=O)N(C)C1=O`, for which the EC50 was > 11 µM (inactive). In the case of `O=C(O)C1Nc2ccc(Br)cc2C2C=CCC12` (stereo not drawn), the EC50 was > 11 µM (inactive).

In the case of `Cc1ccc(C2C3CN(C(C)C)CC=C3C(C#N)=C(N)C2(C#N)C#N)cc1` (stereo not drawn), the EC50 was > 11 µM (inactive). With `O=c1[nH]nc(CNc2ccc(O)cc2)c2ccccc12`, the EC50 was > 11 µM (inactive). Consider `COc1ccc(/C=N/N=C2/CC(C)(C)Cc3n[nH]c(=O)cc32)cc1`, for which the EC50 is > 11 µM (inactive).

Regarding `COc1ccc(CCn2c(O)c(/C=N/NC(=O)c3ccncc3)c(=O)[nH]c2=O)cc1OC`, the EC50 was > 11 µM (inactive). Under `Oc1ccc(/C=C/c2cc(O)cc(O)c2)cc1` stands > 11 µM (inactive); under `O=C(CCN1C(=O)/C(=C\C=C\c2ccccc2)SC1=S)Nc1ccc(C(=O)O)cc1`, > 11 µM (inactive); under `COc1ccc(/C=C(\C#N)C(=O)NCC2CCCO2)cc1OC` (stereo not drawn), > 11 µM (inactive). Next, `O=C(N/N=C/c1cc(Cl)cc([N+](=O)[O-])c1O)C(O)(c1ccccc1)c1ccccc1`: > 11 µM (inactive); `COc1ccc(-c2cn[nH]c2-c2ccc(OCC(=O)NN)cc2O)cc1OC`: > 11 µM (inactive).

Regarding `COC(=O)C1=C(C)N(Cc2ccccc2)C(=NCC(C)C)N[C@H]1c1ccccc1`, the EC50 was > 11 µM (inactive). Next, `CCOC(=O)c1cc(=O)n2nc(-c3ccc(C)cc3)nc2s1`: > 11 µM (inactive); `COc1ccc(OC)c(C2=C/C(=C/c3ccccn3)C(=O)O2)c1`: > 11 µM (inactive). As for `O=C(O)C1Nc2c(O)cc(Cl)c([N+](=O)[O-])c2C2C=CCC12` (stereo not drawn), the EC50 is > 11 µM (inactive).

Consider `Cc1ccc(C)n1-c1ccc2c(c1)COC2=O`, for which the EC50 was > 11 µM (inactive). Regarding `Cc1ccc(/C(O)=C/c2nc3ccccc3oc2=O)cc1`, the EC50 was > 11 µM (inactive). Regarding `CC1(C)CC(=O)C2=C(C1)OC(N)=C(C#N)[C@@H]2c1ccccc1[N+](=O)[O-]`, the EC50 was > 11 µM (inactive).

Source of the values: PubChem BioAssay AID1959 (Broad Institute, 2009).
